Laboratory results published in article PMC10046020, “In Silico Screening and Optimization of Cell-Penetrating Peptides Using Deep Learning Methods” (Biomolecules, 2023).
Peptide text beside a SMILES is read from it. * marks the point of attachment. FITC = O=C1OC2(c3ccc(O)cc3Oc3cc(O)ccc32)c2ccc(NC(=S)*)cc21; Ahx = NCCCCCC(=O)O

Test system: not given
Conditions: Spreadsheet S1: 150 CPP and 150 non-CPP peptides collected from CellPPD, MLCPP, CPPsite 2.0, Lifetein and other publications; cited from earlier work
Excerpt: Supplement biomolecules-13-00522-s001.zip/biomolecules-2162660_Supplementary Spreadsheets S1 Test Set.csv, table | column: class || Supplement biomolecules-13-00522-s001.zip/biomolecules-2162660_Supplementary Spreadsheets S2 Train Set.csv, table | column: class

Molecule	class (CPP / Non-CPP), Test Set
MLPRLICINDYEQHAKSVLPKSIYDYYRSGANDEE	Non-CPP
RKKRRQRRRGKKKKKKKKKKKKKKKGRKKRRQRRR	CPP
AEQNPIYWARYADWLFTTPLLLLDLALLVDADEGT	CPP
FLGALFKVASKVLPSVFCAITKKC	Non-CPP
FLAGLIGGLAKML	Non-CPP
AITFYPFAPNQITCIHE	Non-CPP
NAATATRGRSAASRPTQRPRAPARSASRPRRPVQ	CPP
GIVEQCCDTPCSLYDPENYCN	Non-CPP
YGRKKRRQRRRGC	CPP
KKKKKKKKK	CPP
KWRRKLKKLRPKKKRKV	CPP
CAETCIYIPCFTEAVGCKCKDKVCYKN	Non-CPP
HTPGNSNKWKHLQENKKGRPRR	CPP
SHMMGEFWGDEDMCYRHQRSYET	Non-CPP
GLRKRLRKFRNKIKEKGLRKRLRKFRNKIKEK	CPP
GLFLDTLKGLAGKLLQGLKCIKAGCKP	Non-CPP
FITKALGISYGRKWRRQC	Non-CPP
IAARIKLRSRQYIKLRHL	Non-CPP
GHHSLKITDDPFDVPFPINDDHDS	Non-CPP
FITKALGISYGRKKRRQS	Non-CPP
GAPRLVLLFSGKRKSGKDFVTEA	Non-CPP
DWLKAFYDKVAEKLKEAF	CPP
TERQIKIWFQNRRMK	Non-CPP
TRSSRAGLQFPVGRVIIRLLRK	CPP
AAVALLPAVLLALLAKNNLKECGLY	CPP
LELELELELELELELELELE	CPP
CCTGRKKRRQRRR	CPP

Molecule	class (CPP / Non-CPP), Test Set
LILIGRRRRRRRRGC	CPP
AHALCLTEFQIKSNRRMKWKKEN	Non-CPP
ELFSPIAIAVLGSCVL	Non-CPP
KKLSECLKRIGDELDN	Non-CPP
YGRKKRRQRRTALDWSWLQTE	CPP
LLGDFFRKSKEKIGKEFKRIVQRIKDFLRNLVPRTES	CPP
GRCTKSIPPICFPA	CPP
SDPSVPLRPEEDELIDQ	Non-CPP
EMCILIDENDNKIGADTKKNCHLNENIDKGLLHRA	Non-CPP
GWTLNSAGYLNGKFLPLILRKIVTAL	Non-CPP
KLAKLAKKLAKLAKGGRRRRRRR	CPP
EILLPNSYNAYESYKYPGMFIALSK	Non-CPP
DFDMLRCMLGRVYYPCWQV	Non-CPP
ARRCSGSGSGCGSGSGSCGRR	CPP
KRKKKGKGLGKKRDPCLRKYK	CPP
YSSQHLCGSNLVEALYMTCGRSGFYRPHD	Non-CPP
WELVVLGYGRKKRRQRRR	CPP
GWTNLSAQYLLGPPPGFSPFR	Non-CPP
LAQLLAQLLAQLGGGGRRRRRRRRR	CPP
QAHVHVWHKYSVKTVYH	Non-CPP
PDEIGGKFPTAYVQDYLINPE	Non-CPP
YGRKKRRQRRRPPLRKKKKKH	CPP
ARRRRCSGSGSGCGSGSGSCGRRRR	CPP
RARRNRRARILFQYRARNRARN	CPP
LLATTALLKTTALLKTTA	Non-CPP
GLKKLAELAHKLLKLGC	CPP

Same assay, conditions: Spreadsheet S2: peptides collected from CellPPD, MLCPP, CPPsite 2.0, Lifetein and other publications; cited from earlier work

Molecule	class (CPP / Non-CPP), Train Set
RRRRRRRGGIYLATALAKWALKQGF	CPP

Same assay, conditions: cited from earlier work

Molecule	class (CPP / Non-CPP), Test Set
NYRWRCKNQ	CPP
YARVRRRGPRRR	CPP
RHVYHVLLSQ	CPP
HGVSGHGQHGVHG	Non-CPP
MIEMAM	Non-CPP
RRRRRRWWW	CPP
RRRRRRRRK	CPP
SYNTF	Non-CPP
HATKSQNINF	CPP
FLPFLAKILTGVL	Non-CPP
CRGDKGDPC	CPP
WRWRWRWRW	CPP
MEPLWWANYDNTQ	Non-CPP
PLDGMCDKGNYTQ	Non-CPP
HGWEIHGLLHRA	CPP
RFVHNC	Non-CPP
LRKLRKRLLR	CPP
CYFQNCPVG	Non-CPP
CSKSSDYQC	CPP
KFFKFFKFFK	CPP

Test system: MCF-7 cells
Conditions: not given

Molecule	Permeability	cell permeability compared to the WT peptide
CSCC[C@H](NC(=O)CCCCCNC(=S)Nc1ccc2c(c1)C(=O)OC21c2ccc(O)cc2Oc2cc(O)ccc21)C(=O)N[C@@H](CC(C)C)C(=O)N1CCC[C@H]1C(=O)NCC(=O)N[C@@H](CC(C)C)C(=O)N[C@@H](C)C(=O)N[C@@H](CC(C)C)C(=O)N[C@@H](CC(C)C)C(=O)N[C@@H](CC(C)C)C(=O)N[C@@H](CC(C)C)C(=O)N[C@@H](C)C(=O)N[C@@H](C)C(=O)N[C@@H](Cc1c[nH]c2ccccc12)C(=O)N[C@H](C(=O)N[C@@H](C)C(=O)N[C@@H](CCCNC(=N)N)C(=O)N[C@@H](C)C(N)=O)[C@@H](C)O [Peptide 1] ({FITC-Ahx}-MLPGLALLLLAAWTARA-NH2)	10.40%	–
CSCC[C@H](NC(=O)CCCCCNC(=S)Nc1ccc2c(c1)C(=O)OC21c2ccc(O)cc2Oc2cc(O)ccc21)C(=O)N[C@@H](CCCCN)C(=O)N1CCC[C@H]1C(=O)NCC(=O)N[C@@H](CC(C)C)C(=O)N[C@@H](C)C(=O)N[C@@H](CC(C)C)C(=O)N[C@@H](CC(C)C)C(=O)N[C@@H](CC(C)C)C(=O)N[C@@H](CC(C)C)C(=O)N[C@@H](C)C(=O)N[C@@H](C)C(=O)N[C@@H](CCCCN)C(=O)N[C@@H](CCCCN)C(=O)N[C@@H](C)C(=O)N[C@@H](CCCNC(=N)N)C(=O)N[C@@H](C)C(N)=O [Peptide 10] ({FITC-Ahx}-MKPGLALLLLAAKKARA-NH2)	–	lower cell permeability than the WT CPP
CSCC[C@H](NC(=O)CCCCCNC(=S)Nc1ccc2c(c1)C(=O)OC21c2ccc(O)cc2Oc2cc(O)ccc21)C(=O)N[C@@H](CC(C)C)C(=O)N[C@@H](CCCCN)C(=O)N[C@@H](Cc1c[nH]cn1)C(=O)N[C@@H](CC(C)C)C(=O)N[C@@H](C)C(=O)N[C@@H](CC(C)C)C(=O)N[C@@H](CC(C)C)C(=O)N[C@@H](CC(C)C)C(=O)N[C@@H](CC(C)C)C(=O)N[C@@H](C)C(=O)N[C@@H](C)C(=O)N[C@@H](Cc1c[nH]c2ccccc12)C(=O)N[C@@H](CCCCN)C(=O)N[C@@H](C)C(=O)N[C@@H](CCCNC(=N)N)C(=O)N[C@@H](C)C(N)=O [Peptide 7] ({FITC-Ahx}-MLKHLALLLLAAWKARA-NH2)	59.07%	–
CSCC[C@H](NC(=O)CCCCCNC(=S)Nc1ccc2c(c1)C(=O)OC21c2ccc(O)cc2Oc2cc(O)ccc21)C(=O)N[C@@H](CC(C)C)C(=O)N1CCC[C@H]1C(=O)NCC(=O)N[C@@H](CC(C)C)C(=O)N[C@@H](C)C(=O)N[C@@H](CC(C)C)C(=O)N[C@@H](CC(C)C)C(=O)N[C@@H](CCCCN)C(=O)N[C@@H](CC(C)C)C(=O)N[C@@H](C)C(=O)N[C@@H](C)C(=O)N[C@@H](Cc1c[nH]c2ccccc12)C(=O)N[C@H](C(=O)N[C@@H](C)C(=O)N[C@@H](CCCNC(=N)N)C(=O)N[C@@H](C)C(N)=O)[C@@H](C)O [Peptide 2] ({FITC-Ahx}-MLPGLALLKLAAWTARA-NH2)	–	lower cell permeability than the WT CPP
